Assay results as given in ChEMBL document CHEMBL4507297, “Data for DCP probe PF-04457845” (2021).

Experiments:
[1] = biological target: Tyrosine-protein kinase TXK (Homo sapiens) (UniProt P42681); conditions: Compound concentration 1000.0 nM
[2] = biological target: Homeodomain-interacting protein kinase 1 (Homo sapiens) (UniProt Q86Z02); conditions: Compound concentration 1000.0 nM
[3] = biological target: Serine/threonine-protein kinase SIK2 (Homo sapiens) (UniProt Q9H0K1); conditions: Compound concentration 1000.0 nM
[4] = biological target: Serine/threonine-protein kinase LATS2 (Homo sapiens) (UniProt Q9NRM7); conditions: Compound concentration 1000.0 nM
[5] = tested on: Phosphatidylinositol 4,5-bisphosphate 3-kinase catalytic subunit alpha isoform (Homo sapiens), P42336 [E542K]; conditions: Compound concentration 1000.0 nM
[6] = biological target: Ribosomal protein S6 kinase alpha-5 (Homo sapiens) (UniProt O75582); conditions: Compound concentration 1000.0 nM
[7] = biological target: Proto-oncogene tyrosine-protein kinase receptor Ret (Homo sapiens) (UniProt P07949); conditions: Compound concentration 1000.0 nM
[8] = biological target: BDNF/NT-3 growth factors receptor (Homo sapiens) (UniProt Q16620); conditions: Compound concentration 1000.0 nM
[9] = biological target: SRSF protein kinase 3 (Homo sapiens) (UniProt Q9UPE1); conditions: Compound concentration 1000.0 nM
[10] = biological target: Calcium/calmodulin-dependent protein kinase type 1G (Homo sapiens) (UniProt Q96NX5); conditions: Compound concentration 1000.0 nM
[11] = biological target: Death-associated protein kinase 1 (Homo sapiens) (UniProt P53355); conditions: Compound concentration 1000.0 nM
[12] = biological target: Serine/threonine-protein kinase VRK2 (Homo sapiens) (UniProt Q86Y07); conditions: Compound concentration 1000.0 nM
[13] = biological target: Ankyrin repeat and protein kinase domain-containing protein 1 (Homo sapiens) (UniProt Q8NFD2); conditions: Compound concentration 1000.0 nM
[14] = biological target: Serine/threonine-protein kinase Nek11 (Homo sapiens) (UniProt Q8NG66); conditions: Compound concentration 1000.0 nM
[15] = biological target: Uncharacterized serine/threonine-protein kinase SBK3 (Homo sapiens) (UniProt P0C264); conditions: Compound concentration 1000.0 nM
[16] = biological target: Mitogen-activated protein kinase 11 (Homo sapiens) (UniProt Q15759); conditions: Compound concentration 1000.0 nM
[17] = biological target: Mitogen-activated protein kinase kinase kinase 6 (Homo sapiens) (UniProt O95382); conditions: Compound concentration 1000.0 nM
[18] = biological target: Rho-associated protein kinase 1 (Homo sapiens) (UniProt Q13464); conditions: Compound concentration 1000.0 nM
[19] = biological target: Cyclin-dependent kinase 13 (Homo sapiens) (UniProt Q14004); conditions: Compound concentration 1000.0 nM
[20] = biological target: MAP/microtubule affinity-regulating kinase 4 (Homo sapiens) (UniProt Q96L34); conditions: Compound concentration 1000.0 nM
[21] = biological target: Serine/threonine-protein kinase Sgk3 (Homo sapiens) (UniProt Q96BR1); conditions: Compound concentration 1000.0 nM
[22] = biological target: Mitogen-activated protein kinase 1 (Homo sapiens) (UniProt P28482); conditions: Compound concentration 1000.0 nM
[23] = biological target: Myosin-IIIa (Homo sapiens) (UniProt Q8NEV4); conditions: Compound concentration 1000.0 nM
[24] = biological target: Serine/threonine-protein kinase BRSK2 (Homo sapiens) (UniProt Q8IWQ3); conditions: Compound concentration 1000.0 nM
[25] = biological target: Discoidin domain-containing receptor 2 (Homo sapiens) (UniProt Q16832); conditions: Compound concentration 1000.0 nM
[26] = biological target: Sodium-dependent serotonin transporter (Homo sapiens) (UniProt P31645); conditions: Compound concentration 10.0 uM
[27] = biological target: RAC-alpha serine/threonine-protein kinase (Homo sapiens) (UniProt P31749); conditions: Compound concentration 1000.0 nM
[28] = biological target: Cyclin-dependent kinase-like 5 (Homo sapiens) (UniProt O76039); conditions: Compound concentration 1000.0 nM
[29] = tested on: Phosphatidylinositol 4,5-bisphosphate 3-kinase catalytic subunit alpha isoform (Homo sapiens), P42336 [H1047L]; conditions: Compound concentration 1000.0 nM
[30] = biological target: Phosphatidylinositol 3-kinase C2 domain-containing subunit gamma (Homo sapiens) (UniProt O75747); conditions: Compound concentration 1000.0 nM
[31] = biological target: Interferon-induced, double-stranded RNA-activated protein kinase (Homo sapiens) (UniProt P19525); conditions: Compound concentration 1000.0 nM
[32] = biological target: Serine/threonine-protein kinase PAK 6 (Homo sapiens) (UniProt Q9NQU5); conditions: Compound concentration 1000.0 nM
[33] = biological target: Tyrosine-protein kinase JAK1 (Homo sapiens) (UniProt P23458); conditions: Compound concentration 1000.0 nM
[34] = biological target: Proto-oncogene tyrosine-protein kinase Src (Homo sapiens) (UniProt P12931); conditions: Compound concentration 1000.0 nM
[35] = biological target: Serine/threonine-protein kinase RIO2 (Homo sapiens) (UniProt Q9BVS4); conditions: Compound concentration 1000.0 nM
[36] = biological target: Membrane-associated tyrosine- and threonine-specific cdc2-inhibitory kinase (Homo sapiens) (UniProt Q99640); conditions: Compound concentration 1000.0 nM
[37] = biological target: Ribosomal protein S6 kinase alpha-1 (Homo sapiens) (UniProt Q15418); conditions: Compound concentration 1000.0 nM
[38] = biological target: Serine/threonine-protein kinase Nek5 (Homo sapiens) (UniProt Q6P3R8); conditions: Compound concentration 1000.0 nM
[39] = biological target: Death-associated protein kinase 2 (Homo sapiens) (UniProt Q9UIK4); conditions: Compound concentration 1000.0 nM
[40] = biological target: Serine/threonine-protein kinase B-raf (Homo sapiens) (UniProt P15056); conditions: Compound concentration 1000.0 nM
[41] = biological target: Ribosomal protein S6 kinase alpha-6 (Homo sapiens) (UniProt Q9UK32); conditions: Compound concentration 1000.0 nM
[42] = biological target: Epidermal growth factor receptor (Homo sapiens) (UniProt P00533); conditions: Compound concentration 1000.0 nM
[43] = biological target: Dual specificity testis-specific protein kinase 1 (Homo sapiens) (UniProt Q15569); conditions: Compound concentration 1000.0 nM
[44] = tested on: Receptor-type tyrosine-protein kinase FLT3 (Homo sapiens), P36888 [D835V]; conditions: Compound concentration 1000.0 nM
[45] = biological target: Receptor-type tyrosine-protein kinase FLT3 (Homo sapiens) (UniProt P36888); conditions: Compound concentration 1000.0 nM

Chain of Serine/threonine-protein kinase B-raf (Homo sapiens) (P15056 whole entry): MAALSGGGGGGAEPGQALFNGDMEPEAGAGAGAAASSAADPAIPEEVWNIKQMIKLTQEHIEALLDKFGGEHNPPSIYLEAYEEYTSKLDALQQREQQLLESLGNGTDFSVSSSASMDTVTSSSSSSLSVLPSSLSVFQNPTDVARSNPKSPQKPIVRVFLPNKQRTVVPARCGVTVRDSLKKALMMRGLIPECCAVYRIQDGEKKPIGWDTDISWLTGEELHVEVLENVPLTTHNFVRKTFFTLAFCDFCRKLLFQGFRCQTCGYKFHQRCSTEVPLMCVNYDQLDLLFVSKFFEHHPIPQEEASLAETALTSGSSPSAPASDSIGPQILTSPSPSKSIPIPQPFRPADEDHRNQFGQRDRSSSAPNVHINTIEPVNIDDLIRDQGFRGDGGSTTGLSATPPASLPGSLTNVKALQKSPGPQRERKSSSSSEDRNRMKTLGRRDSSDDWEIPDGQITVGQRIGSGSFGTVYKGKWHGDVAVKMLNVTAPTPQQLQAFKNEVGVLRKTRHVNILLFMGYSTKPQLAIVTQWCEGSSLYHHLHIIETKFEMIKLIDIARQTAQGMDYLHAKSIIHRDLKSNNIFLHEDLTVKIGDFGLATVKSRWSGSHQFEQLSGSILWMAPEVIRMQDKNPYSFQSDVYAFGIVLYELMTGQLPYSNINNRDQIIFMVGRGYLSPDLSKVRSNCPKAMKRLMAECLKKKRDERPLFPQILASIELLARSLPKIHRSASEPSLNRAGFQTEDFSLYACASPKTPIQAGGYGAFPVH
Chain of Ribosomal protein S6 kinase alpha-5 (Homo sapiens) (O75582 whole entry, looked up): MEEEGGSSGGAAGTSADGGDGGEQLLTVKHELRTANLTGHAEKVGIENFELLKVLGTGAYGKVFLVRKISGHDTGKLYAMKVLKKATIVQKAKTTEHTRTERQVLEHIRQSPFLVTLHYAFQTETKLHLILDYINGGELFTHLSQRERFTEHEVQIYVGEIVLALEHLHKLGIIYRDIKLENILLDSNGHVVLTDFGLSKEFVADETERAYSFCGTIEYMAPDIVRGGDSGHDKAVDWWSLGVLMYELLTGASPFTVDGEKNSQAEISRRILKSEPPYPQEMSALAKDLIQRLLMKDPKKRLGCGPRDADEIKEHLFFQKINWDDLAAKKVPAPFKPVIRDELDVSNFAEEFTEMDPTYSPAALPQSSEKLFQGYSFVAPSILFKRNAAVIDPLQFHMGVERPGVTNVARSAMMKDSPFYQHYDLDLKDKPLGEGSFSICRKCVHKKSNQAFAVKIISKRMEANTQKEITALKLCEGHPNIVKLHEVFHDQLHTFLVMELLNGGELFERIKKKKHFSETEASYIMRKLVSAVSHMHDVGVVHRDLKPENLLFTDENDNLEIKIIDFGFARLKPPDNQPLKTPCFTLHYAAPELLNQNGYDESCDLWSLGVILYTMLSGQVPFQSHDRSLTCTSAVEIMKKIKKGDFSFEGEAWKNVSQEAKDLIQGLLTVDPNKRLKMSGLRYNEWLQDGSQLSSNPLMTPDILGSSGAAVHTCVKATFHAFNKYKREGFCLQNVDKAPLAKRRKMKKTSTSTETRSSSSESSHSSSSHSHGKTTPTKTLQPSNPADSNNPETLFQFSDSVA
Chain of Tyrosine-protein kinase JAK1 (Homo sapiens) (P23458 whole entry): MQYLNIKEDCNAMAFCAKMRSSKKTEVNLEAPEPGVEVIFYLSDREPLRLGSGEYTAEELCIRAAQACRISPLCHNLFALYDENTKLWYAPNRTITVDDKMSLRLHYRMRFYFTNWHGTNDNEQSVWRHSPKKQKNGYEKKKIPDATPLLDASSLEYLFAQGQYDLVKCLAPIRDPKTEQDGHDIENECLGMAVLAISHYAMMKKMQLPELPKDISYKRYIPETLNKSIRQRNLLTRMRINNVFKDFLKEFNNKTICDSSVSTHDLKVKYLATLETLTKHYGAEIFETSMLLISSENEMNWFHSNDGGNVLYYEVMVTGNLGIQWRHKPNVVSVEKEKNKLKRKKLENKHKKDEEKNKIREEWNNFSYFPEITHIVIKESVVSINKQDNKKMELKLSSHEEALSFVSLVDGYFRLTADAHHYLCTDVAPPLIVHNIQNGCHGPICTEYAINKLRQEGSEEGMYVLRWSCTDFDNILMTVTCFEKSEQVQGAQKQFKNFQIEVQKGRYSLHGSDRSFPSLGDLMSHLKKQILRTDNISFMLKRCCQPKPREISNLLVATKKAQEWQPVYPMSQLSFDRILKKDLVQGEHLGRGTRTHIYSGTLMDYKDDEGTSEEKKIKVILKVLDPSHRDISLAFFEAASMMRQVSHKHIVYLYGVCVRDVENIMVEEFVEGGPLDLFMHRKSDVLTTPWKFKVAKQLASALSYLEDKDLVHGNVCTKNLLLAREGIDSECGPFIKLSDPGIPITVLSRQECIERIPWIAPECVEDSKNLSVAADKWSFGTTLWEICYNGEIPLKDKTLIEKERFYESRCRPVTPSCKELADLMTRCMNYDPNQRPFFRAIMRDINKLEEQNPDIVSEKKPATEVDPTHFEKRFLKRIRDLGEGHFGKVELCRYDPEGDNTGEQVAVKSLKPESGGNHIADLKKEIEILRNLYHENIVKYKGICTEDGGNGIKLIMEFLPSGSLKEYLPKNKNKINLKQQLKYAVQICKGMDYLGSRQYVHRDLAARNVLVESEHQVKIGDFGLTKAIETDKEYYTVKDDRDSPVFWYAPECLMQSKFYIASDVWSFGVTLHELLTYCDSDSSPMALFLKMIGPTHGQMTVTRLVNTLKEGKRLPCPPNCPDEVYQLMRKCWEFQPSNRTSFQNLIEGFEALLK
Chain of SRSF protein kinase 3 (Homo sapiens) (Q9UPE1 whole entry): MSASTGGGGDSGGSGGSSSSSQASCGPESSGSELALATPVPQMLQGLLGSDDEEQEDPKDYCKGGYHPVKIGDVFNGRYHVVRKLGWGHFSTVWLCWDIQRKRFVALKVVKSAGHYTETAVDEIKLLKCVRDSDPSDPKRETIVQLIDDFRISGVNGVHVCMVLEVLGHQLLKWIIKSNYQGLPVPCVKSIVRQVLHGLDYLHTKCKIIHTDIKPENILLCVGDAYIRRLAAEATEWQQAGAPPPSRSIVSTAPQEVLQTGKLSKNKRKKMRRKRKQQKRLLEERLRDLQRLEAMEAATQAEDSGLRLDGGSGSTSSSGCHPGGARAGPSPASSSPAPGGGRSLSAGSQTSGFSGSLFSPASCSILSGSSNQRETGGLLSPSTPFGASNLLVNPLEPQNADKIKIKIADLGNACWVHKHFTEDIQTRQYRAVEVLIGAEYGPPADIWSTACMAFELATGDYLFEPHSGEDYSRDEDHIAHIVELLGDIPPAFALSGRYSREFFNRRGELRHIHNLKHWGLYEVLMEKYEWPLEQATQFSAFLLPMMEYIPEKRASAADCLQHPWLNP
Chain of Interferon-induced, double-stranded RNA-activated protein kinase (Homo sapiens) (P19525 whole entry): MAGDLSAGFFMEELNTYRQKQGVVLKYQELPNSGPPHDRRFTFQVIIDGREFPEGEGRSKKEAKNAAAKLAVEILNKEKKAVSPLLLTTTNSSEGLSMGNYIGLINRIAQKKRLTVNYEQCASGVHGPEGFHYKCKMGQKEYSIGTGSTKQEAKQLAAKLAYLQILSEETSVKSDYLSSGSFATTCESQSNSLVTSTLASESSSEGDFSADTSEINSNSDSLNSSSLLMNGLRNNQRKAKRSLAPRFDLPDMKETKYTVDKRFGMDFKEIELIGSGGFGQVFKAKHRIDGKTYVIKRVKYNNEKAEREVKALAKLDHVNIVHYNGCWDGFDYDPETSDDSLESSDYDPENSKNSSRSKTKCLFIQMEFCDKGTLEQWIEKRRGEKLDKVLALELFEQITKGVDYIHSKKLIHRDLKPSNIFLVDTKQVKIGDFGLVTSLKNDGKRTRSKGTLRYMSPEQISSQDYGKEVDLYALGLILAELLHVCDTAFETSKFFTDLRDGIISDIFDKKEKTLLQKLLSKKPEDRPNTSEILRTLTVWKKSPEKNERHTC
Chain of Mitogen-activated protein kinase 11 (Homo sapiens) (Q15759 whole entry): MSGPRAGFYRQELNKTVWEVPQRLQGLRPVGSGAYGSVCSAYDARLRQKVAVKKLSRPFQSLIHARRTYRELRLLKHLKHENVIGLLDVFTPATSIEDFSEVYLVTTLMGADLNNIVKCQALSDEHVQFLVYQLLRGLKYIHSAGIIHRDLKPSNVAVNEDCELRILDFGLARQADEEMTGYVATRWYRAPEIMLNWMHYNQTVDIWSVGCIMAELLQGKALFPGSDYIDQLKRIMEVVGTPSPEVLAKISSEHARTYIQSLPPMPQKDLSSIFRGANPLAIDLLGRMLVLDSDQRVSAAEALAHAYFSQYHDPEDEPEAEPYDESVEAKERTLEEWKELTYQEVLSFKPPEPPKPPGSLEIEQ
Chain of Serine/threonine-protein kinase BRSK2 (Homo sapiens) (Q8IWQ3 whole entry, the tested form may be a part): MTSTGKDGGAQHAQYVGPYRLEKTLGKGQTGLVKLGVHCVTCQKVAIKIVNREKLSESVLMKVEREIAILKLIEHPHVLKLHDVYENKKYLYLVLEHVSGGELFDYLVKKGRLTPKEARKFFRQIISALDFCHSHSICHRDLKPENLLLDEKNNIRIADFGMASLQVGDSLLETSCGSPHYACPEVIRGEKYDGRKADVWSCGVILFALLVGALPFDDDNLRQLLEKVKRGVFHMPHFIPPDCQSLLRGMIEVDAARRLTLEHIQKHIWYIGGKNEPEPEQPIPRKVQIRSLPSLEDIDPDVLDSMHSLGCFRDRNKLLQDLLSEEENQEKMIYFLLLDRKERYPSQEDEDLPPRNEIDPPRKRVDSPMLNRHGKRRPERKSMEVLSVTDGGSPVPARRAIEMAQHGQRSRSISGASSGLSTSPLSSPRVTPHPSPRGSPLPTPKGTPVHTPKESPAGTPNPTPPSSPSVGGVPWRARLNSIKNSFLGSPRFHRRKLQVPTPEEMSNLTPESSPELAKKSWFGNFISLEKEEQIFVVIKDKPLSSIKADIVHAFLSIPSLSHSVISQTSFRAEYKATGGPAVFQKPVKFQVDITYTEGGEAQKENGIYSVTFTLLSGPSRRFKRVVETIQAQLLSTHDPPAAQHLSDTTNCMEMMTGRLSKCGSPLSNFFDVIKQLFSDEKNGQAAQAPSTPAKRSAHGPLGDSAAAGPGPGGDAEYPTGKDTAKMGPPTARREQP

O=C(Nc1cccnn1)N1CC(C/C=C/c2cncc(Oc3ccc(C(F)(F)F)cn3)n2)C1
inactive: residual activity [1] 100% | residual activity [2] 88% | residual activity [3] 100% | residual activity [4] 100% | residual activity [5] 88% | residual activity [6] 100% | residual activity [7] 100% | residual activity [8] 77% | residual activity [9] 100% | residual activity [10] 100% | residual activity [11] 98% | residual activity [12] 97% | residual activity [13] 73% | residual activity [14] 100% | residual activity [15] 100% | residual activity [16] 100% | residual activity [17] 60% | residual activity [18] 82% | residual activity [19] 98% | residual activity [20] 100% | residual activity [21] 87% | residual activity [22] 100% | residual activity [23] 100% | residual activity [24] 100% | residual activity [25] 80% | inhibition [26] 32.7% | residual activity [27] 100% | residual activity [28] 73% | residual activity [29] 100% | residual activity [30] 100% | residual activity [31] 100% | residual activity [32] 100% | residual activity [33] 100% | residual activity [34] 100% | residual activity [35] 77% | residual activity [36] 100% | residual activity [37] 92% | residual activity [38] 100% | residual activity [39] 100% | residual activity [40] 100% | residual activity [41] 89% | residual activity [42] 99% | residual activity [43] 100% | residual activity [44] 77% | residual activity [45] 86%

O=C(Nc1cccnn1)N1CCC(=Cc2cccc(Oc3ccc(C(F)(F)F)cn3)c2)CC1
inactive: residual activity [1] 100% | residual activity [2] 100% | residual activity [3] 100% | residual activity [4] 84% | residual activity [5] 65% | residual activity [6] 71% | residual activity [7] 100% | residual activity [8] 100% | residual activity [9] 81% | residual activity [10] 95% | residual activity [11] 100% | residual activity [12] 100% | residual activity [13] 96% | residual activity [14] 100% | residual activity [15] 100% | residual activity [16] 83% | residual activity [17] 100% | residual activity [18] 100% | residual activity [19] 100% | residual activity [20] 76% | residual activity [21] 93% | residual activity [22] 92% | residual activity [23] 100% | residual activity [24] 90% | residual activity [25] 100% | inhibition [26] 20.2% | residual activity [27] 93% | residual activity [28] 100% | residual activity [29] 100% | residual activity [30] 95% | residual activity [31] 100% | residual activity [32] 100% | residual activity [33] 97% | residual activity [34] 88% | residual activity [35] 100% | residual activity [36] 100% | residual activity [37] 100% | residual activity [38] 97% | residual activity [39] 69% | residual activity [40] 93% | residual activity [41] 100% | residual activity [42] 100% | residual activity [43] 91% | residual activity [44] 100% | residual activity [45] 97%
